From publication PMC6370856, “Peptidyl prolyl cis/trans isomerase activity on the cell surface correlates with extracellular matrix development” (Communications Biology, 2019)
Blank lines part the entries; values can stand above or below the compound they belong to.

How the values were obtained:
[1] = target: T1, Pin1 (Homo sapiens, UniProt Q13526); assay: Liquid chromatography-based protease-coupled PPIase activity assay, Pin1 (nagarse); format: biochemical
T1 construct: host or cells: Escherichia coli BL21 (DE3)
T1 sequence (Q13526 with tags, fused parts or gaps): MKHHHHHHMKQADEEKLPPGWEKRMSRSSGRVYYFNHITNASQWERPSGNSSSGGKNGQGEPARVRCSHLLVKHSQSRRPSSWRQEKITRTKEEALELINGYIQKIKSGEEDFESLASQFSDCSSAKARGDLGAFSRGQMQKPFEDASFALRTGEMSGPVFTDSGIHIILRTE
Excerpt: A small gap was opened on

[2] = tested on: fibrin hydrogel; assay: Stiffness (storage modulus) of fibrin gel by rheometer
Protocol: To minimize sample evaporation at 37 °C, a tissue paper wet in HEPEs buffer (10 mM, pH 7.8) was placed inside the H-PTD chamber to increase the humidity. […] The cone and plate were treated with plasma for 5 min to increase the hydrophilicity of the metal surface.
Fibrin gel: Fibrinogen (Shanghai Laishi Xuezhipin Limited Company) was dissolved in PBS with a concentration of 22.2 mg mL^−1 overnight at room temperature with gentle shaking and aliquoted in protein low-binding tubes (45 µL per tube). […] Fifty microliters of thrombin (4 EU mL^−1 in PBS with 1.8 mM CaCl2) was added and pipetted up and down ten times. Then, it was transferred to the rheometer plate for measurement. […] For each condition, two independent experiments were performed (Fig. 1a and Supplementary Fig. 1).

[3] = tested on: mixture of Jurkat T lymphocyte and the plasma protein fibrinogen; assay: Viscosity/shear rate measurement of Jurkat cells in fibrinogen solution; format: cell-based
Excerpt: Since PPIases can catalyze the dynamic rearrangement of the dense ECM polymer network, we speculated that PPIases could also affect the dynamic interaction between cells and the ECM. Probing the influence of transient prolyl isomerization on cell–ECM interaction is difficult. Studying cell adhesion by the treatment of PPIase inhibitors cannot distinguish extracellular and intracellular factors as well as receptor-mediated signaling due to the long assay time. In order to reflect the highly dynamic process, we measured the viscosity of plasma protein solution with cells. Blood is a shear-thinning non-Newtonian fluid, and its viscosity is largely affected by the interaction between cells and plasma proteins, for example, the coagulation process. We investigated whether the catalyzed isomerization could also influence the interaction between blood cells and plasma proteins, thus affecting the viscosity. We performed viscosity/shear rate measurements using a mixture of Jurkat T lymphocyte and the plasma protein fibrinogen.
The machine used for viscosity is the same as for stiffness measurements. To 30 µL of 4 mg mL^−1 fibrinogen, an equal volume of Jurkat cells (8 × 10^7 mL^−1 in PBS, washed two times with PBS before used; Jurkat cells ocupated around 20% of the volume) was added. The mixture was pipetted up and down six times, kept on ice for 10 min, and then transferred to the rheometer plater (25 °C) for measurements. The plate temperature was raised to 37 °C. The measurement was performed by increasing shear rate ramp liner from 100 to 1000 s^−1. Hundred data points were collected during the measurements. For each condition, two independent experiments were performed (Fig. 1c and Supplementary Fig. 3).

[4] = tested on: PBMC samples from healthy donors, mixed; assay: PACS in a two-way mixed lymphocyte reaction; format: cell-based, human; conditions: for effect on PACS in two-way mixed lymphocyte reaction: PBMCs treated with immunosuppressive drug; for cell surface PPIase activity k, Exp. 1 / cell surface PPIase activity k, Exp. 2 / cell surface PPIase activity k, Exp. 3 / cell surface PPIase activity k, Exp. 4 / cell surface PPIase activity k, Mean: 24 hours
Protocol: PACS were measured with four PBMC samples from healthy donors or with all six different combinations. […] After 24 h, diminished activity was detected in all combinations (Fig. 6d). For two combinations, no trace of activity could be detected, resembling the results from some primary samples of leukemia cells.
Mixed lymphocyte reaction is a routine assay used to measure the safety of implantable materials and the effect of immunosuppressive treatments. The PACS assay could become an alternative test, within a relatively short period of time, avoiding the use of biochemical reagents such as antibodies.
The assay was performed in a cold room. If there was no additional description, the assays were performed in CO2-independent medium supplemented with 10% (v/v) h.i. FBS (medium-h.i. FBS) and 2mM L-glutamine. […] FBS to a final concentration of 120 µg mL^−1 (two times substrate stock). α-Chymotrypsin was prepared freshly. Fifteen micrograms of α-chymotrypsin was dissolved in 2 mL medium-h.i. FBS, and the pH was adjusted with 10 µL 1 M NaOH. Five millimole CsA, SLF, and CsA/SLF mixture were prepared in DMSO.
One or more flasks of cells (5 mL per flask, depending on the maximum culture density of each cell line) were harvested by centrifuging at 1000 rpm for 3 min. To remove PPIases from the supernatant originating from the culture, cells were washed one time with 2 mL CO2-independent medium and were resuspended in 1.6 mL of CO2-independent medium with substrate. The cells were centrifuged again, and then 800 µL of the supernatant was taken. The residual volume containing cells was suspended. Nineteen microliters of the cells or supernatant was pipetted to a non-binding 96-well microplate to measure PPIase activity. Four different conditions were performed. […] The plate was kept for 5 min without agitation. The activity measurements were triggered by adding 20 µL of α-chymotrypsin at time 0 min, followed by 1.5 min agitation, and the reaction was stopped after 2 min with 80 µL 20% acetic acid, followed by 15 rounds of up and down pipetting mixing. Four independent experiments were performed on the same day.

Pin catalyzing cis to trans isomerization rate k, Exp. 1 ([1]; 25 nM Pin1 + 50 mM PO4-): 0.0025 s⁻¹ | Pin catalyzing cis to trans isomerization rate k, Exp. 3 ([1]; 25 nM Pin1 + 50 mM PO4-): 0.00169 s⁻¹ | Pin catalyzing cis to trans isomerization rate k, Mean ([1]; 25 nM Pin1 + 50 mM PO4-): 0.00212 s⁻¹ | effect on Pin1 activity ([1]; 50 mM): inhibited
Compound: O=P(O)(O)O [PO4-, inorganic phosphate, reference compound]

Compound: Pin1: recombinant His-Pin1, parvulin family PPIase
Pin catalyzing cis to trans isomerization rate k, Exp. 1 ([1]; 6.25 nM Pin1): 0.00224 s⁻¹ | Pin catalyzing cis to trans isomerization rate k, Exp. 2 ([1]; 6.25 nM Pin1): 0.00228 s⁻¹ | Pin catalyzing cis to trans isomerization rate k, Exp. 3 ([1]; 6.25 nM Pin1): 0.00191 s⁻¹ | Pin catalyzing cis to trans isomerization rate k, Mean ([1]; 6.25 nM Pin1): 0.00214 s⁻¹ | Pin catalyzing cis to trans isomerization rate k, Exp. 1 ([1]; 12.5 nM Pin1): 0.00419 s⁻¹ | Pin catalyzing cis to trans isomerization rate k, Exp. 2 ([1]; 12.5 nM Pin1): 0.00424 s⁻¹ | Pin catalyzing cis to trans isomerization rate k, Exp. 3 ([1]; 12.5 nM Pin1): 0.00418 s⁻¹ | Pin catalyzing cis to trans isomerization rate k, Mean ([1]; 12.5 nM Pin1): 0.0042 s⁻¹ | Pin catalyzing cis to trans isomerization rate k, Exp. 1 ([1]; 25 nM Pin1): 0.00841 s⁻¹ | Pin catalyzing cis to trans isomerization rate k, Exp. 2 ([1]; 25 nM Pin1): 0.00868 s⁻¹ | Pin catalyzing cis to trans isomerization rate k, Exp. 3 ([1]; 25 nM Pin1): 0.00853 s⁻¹ | Pin catalyzing cis to trans isomerization rate k, Mean ([1]; 25 nM Pin1): 0.00854 s⁻¹

Compound: CypA R55A: inactive mutant CypA R55A (a gift from Gunter Fischer)
effect on fibrin gelation as compared to the wild-type CypA [2]: remarkably reduced

Compound: C=CC[C@@H]1/C=C(\C)C[C@H](C)C[C@H](OC)[C@H]2O[C@@](O)(C(=O)C(=O)N3CCCC[C@H]3C(=O)O[C@H](/C(C)=C/[C@@H]3CC[C@@H](O)[C@H](OC)C3)[C@H](C)[C@@H](O)CC1=O)[C@H](C)C[C@@H]2OC [FK506]
effect on viscosity of cell/fibrinogen mixture ([3]; Jurkat T lymphocyte and fibrinogen, shear rate 100-1000 s^-1): reduce the viscosity | effect on viscosity of cells in PBS or fibrinogen solution ([3]; Jurkat cells in PBS alone or fibrinogen solution alone): neither CsA nor FK506 has an effect | effect on PACS in two-way mixed lymphocyte reaction [4]: recover PACS | cell surface PPIase activity k, Exp. 1 ([4]; healthy donors ab mixed): 0.00026 s⁻¹ | cell surface PPIase activity k, Exp. 2 ([4]; healthy donors ab mixed): 0.00025 s⁻¹ | cell surface PPIase activity k, Exp. 3 ([4]; healthy donors ab mixed): 0.00019 s⁻¹ | cell surface PPIase activity k, Exp. 4 ([4]; healthy donors ab mixed): 0.00029 s⁻¹ | cell surface PPIase activity k, Mean ([4]; healthy donors ab mixed): 0.0002475 s⁻¹ | cell surface PPIase activity k, Exp. 1 ([4]; healthy donors ac mixed): 0.00016 s⁻¹ | cell surface PPIase activity k, Exp. 2 ([4]; healthy donors ac mixed): 0.00014 s⁻¹ | cell surface PPIase activity k, Exp. 3 ([4]; healthy donors ac mixed): 0.00019 s⁻¹ | cell surface PPIase activity k, Exp. 4 ([4]; healthy donors ac mixed): 0.00016 s⁻¹ | cell surface PPIase activity k, Mean ([4]; healthy donors ac mixed): 0.0001625 s⁻¹ | cell surface PPIase activity k, Exp. 1 ([4]; healthy donors ad mixed): 0.00016 s⁻¹ | cell surface PPIase activity k, Exp. 3 ([4]; healthy donors ad mixed): 0.00017 s⁻¹ | cell surface PPIase activity k, Exp. 4 ([4]; healthy donors ad mixed): 0.00015 s⁻¹ | cell surface PPIase activity k, Mean ([4]; healthy donors ad mixed): 0.00016 s⁻¹ | cell surface PPIase activity k, Exp. 1 ([4]; healthy donors bc mixed): 0.00038 s⁻¹ | cell surface PPIase activity k, Exp. 2 ([4]; healthy donors bc mixed): 0.00029 s⁻¹ | cell surface PPIase activity k, Exp. 3 ([4]; healthy donors bc mixed): 0.00031 s⁻¹ | cell surface PPIase activity k, Exp. 4 ([4]; healthy donors bc mixed): 0.00036 s⁻¹ | cell surface PPIase activity k, Mean ([4]; healthy donors bc mixed): 0.000335 s⁻¹ | cell surface PPIase activity k, Exp. 1 ([4]; healthy donors bd mixed): 0.00021 s⁻¹ | cell surface PPIase activity k, Exp. 2 ([4]; healthy donors bd mixed): 0.00026 s⁻¹ | cell surface PPIase activity k, Exp. 4 ([4]; healthy donors bd mixed): 0.00031 s⁻¹ | cell surface PPIase activity k, Mean ([4]; healthy donors bd mixed): 0.00026 s⁻¹ | cell surface PPIase activity k, Exp. 1 ([4]; healthy donors cd mixed): 0.00017 s⁻¹ | cell surface PPIase activity k, Exp. 2 ([4]; healthy donors cd mixed): 0.00019 s⁻¹ | cell surface PPIase activity k, Exp. 4 ([4]; healthy donors cd mixed): 0.00018 s⁻¹ | cell surface PPIase activity k, Mean ([4]; healthy donors cd mixed): 0.00018 s⁻¹

Compound: CO[C@H]1C[C@@H]2CC[C@@H](C)[C@@](O)(O2)C(=O)C(=O)N2CCCC[C@H]2C(=O)O[C@H]([C@H](C)C[C@@H]2CC[C@@H](O)[C@H](OC)C2)CC(=O)[C@H](C)/C=C(\C)[C@@H](O)[C@@H](OC)C(=O)[C@H](C)C[C@H](C)/C=C/C=C/C=C/1C [rapamycin]
effect on PACS in two-way mixed lymphocyte reaction [4]: recover PACS | cell surface PPIase activity k, Exp. 1 ([4]; healthy donors ab mixed): 0.00035 s⁻¹ | cell surface PPIase activity k, Exp. 2 ([4]; healthy donors ab mixed): 0.00038 s⁻¹ | cell surface PPIase activity k, Exp. 3 ([4]; healthy donors ab mixed): 0.00034 s⁻¹ | cell surface PPIase activity k, Exp. 4 ([4]; healthy donors ab mixed): 0.0003 s⁻¹ | cell surface PPIase activity k, Mean ([4]; healthy donors ab mixed): 0.0003425 s⁻¹ | cell surface PPIase activity k, Exp. 2 ([4]; healthy donors ac mixed): 0.00041 s⁻¹ | cell surface PPIase activity k, Exp. 3 ([4]; healthy donors ac mixed): 0.00046 s⁻¹ | cell surface PPIase activity k, Exp. 4 ([4]; healthy donors ac mixed): 0.00043 s⁻¹ | cell surface PPIase activity k, Mean ([4]; healthy donors ac mixed): 0.0004333 s⁻¹ | cell surface PPIase activity k, Exp. 1 ([4]; healthy donors ad mixed): 0.00034 s⁻¹ | cell surface PPIase activity k, Exp. 2 ([4]; healthy donors ad mixed): 0.00028 s⁻¹ | cell surface PPIase activity k, Exp. 3 ([4]; healthy donors ad mixed): 0.00027 s⁻¹ | cell surface PPIase activity k, Exp. 4 ([4]; healthy donors ad mixed): 0.00037 s⁻¹ | cell surface PPIase activity k, Mean ([4]; healthy donors ad mixed): 0.000315 s⁻¹ | cell surface PPIase activity k, Exp. 1 ([4]; healthy donors bc mixed): 0.00037 s⁻¹ | cell surface PPIase activity k, Exp. 3 ([4]; healthy donors bc mixed): 0.00037 s⁻¹ | cell surface PPIase activity k, Exp. 4 ([4]; healthy donors bc mixed): 0.00034 s⁻¹ | cell surface PPIase activity k, Mean ([4]; healthy donors bc mixed): 0.00036 s⁻¹ | cell surface PPIase activity k, Exp. 1 ([4]; healthy donors bd mixed): 0.00043 s⁻¹ | cell surface PPIase activity k, Exp. 2 ([4]; healthy donors bd mixed): 0.0005 s⁻¹ | cell surface PPIase activity k, Exp. 3 ([4]; healthy donors bd mixed): 0.00053 s⁻¹ | cell surface PPIase activity k, Exp. 4 ([4]; healthy donors bd mixed): 0.00054 s⁻¹ | cell surface PPIase activity k, Mean ([4]; healthy donors bd mixed): 0.0005 s⁻¹ | cell surface PPIase activity k, Exp. 1 ([4]; healthy donors cd mixed): 0.00036 s⁻¹ | cell surface PPIase activity k, Exp. 2 ([4]; healthy donors cd mixed): 0.00026 s⁻¹ | cell surface PPIase activity k, Exp. 3 ([4]; healthy donors cd mixed): 0.00026 s⁻¹ | cell surface PPIase activity k, Exp. 4 ([4]; healthy donors cd mixed): 0.0002 s⁻¹ | cell surface PPIase activity k, Mean ([4]; healthy donors cd mixed): 0.00027 s⁻¹
